This is an account of results in patent US20250268926A1, “METHOD AND COMPOSITION FOR TREATING, ALLEVIATING OR PREVENTING A DISEASE OR CONDITION CAUSED BY AIR POLLUTANT” (Hong Kong Baptist University, priority 2024, published 2025).

What all share (assay type): cell-based, human
Assay [1] concerns BEAS-2B cells. In words: Seahorse substrate oxidation stress test (glucose / fatty acid oxidation). Conditions: for maximal respiration of cells with oxidation inhibitor: cells with or without PM2.5. As for the experimental part: (§1) Cell Mito stress test: BEAS-2B cells were seeded in the XF 96-well Seahorse assay miniplates with a density of 20,000 cells/well in BEGM™ bronchial epithelial cell growth medium and incubated for 24 h at 37° C. After exposure, the cells were washed with XF assay medium including 10 mM glucose, 1 mM sodium pyruvate, and 2 mM L-glutamine (adjusted pH to 7.4 with 0.1 M NaOH) and incubated for 1 h in a 37° C. non-CO2 incubator. Before assay, the sensor cartridge was hydrated in Agilent Seahorse XF Calibrant at 37° C. in a non-CO2 incubator overnight, and oligomycin (port A final 1 μM), carbonyl cyanide-4-(trifluoromethoxy) phenylhydrazone (FCCP) (port B final 1 μM chosen from the optimization assay) and rotenone antimycin A (port C final 0.5 μM) were added to the corresponding ports of the hydrated sensor cartridge. Then the cartridge was transferred to the Seahorse analyzer (Agilent Technologies) to calibrate the period for approximately 20 min. When the calibration has been completed, the utility plate was removed and the cell miniplate was placed to start the assay. The assay was divided into four parts. After the equilibration period was three basal assays, and then oligomycin was added to inhibit the complex V (ATP synthase) for three cycles, FCCP was followed to stimulate maximal respiration in mitochondria by uncoupling ATP synthesis from electron transport. Lastly, rotenone plus antimycin A was added to determine the non-mitochondrial respiratory rate. Oxygen consumption rate (OCR) was used to assess the mitochondrial respiratory change.
The substrate oxidation stress test was used to assess the specific mitochondrial substrates that were relevant or required for cellular phenotype and function. Two different inhibitors (UK50099 for the glucose pathway and etomoxir for the long-chain fatty acids pathway) were added before the Mito stress test and the following process was the same with the Mito stress test.

Assay [2] relates to BEAS-2B cells. Kind of assay: Seahorse Cell Mito stress test (OCR). Particulars: for ATP production / basal respiration / maximal respiration: after exposure to PM2.5 from both Taiyuan and Guangzhou (200 μg/mL), metabolite 200 μM. As for the experimental part: (§2) To detect the cell viability, different concentrations (25 μM, 50 μM, 100 μM, and 200 μM) of selected metabolic markers were added to BEAS-2B cell cultures for 24 h, followed by 200 μg/mL PM2.5 samples for another 24 h. After exposure, 10 μL CCK-8 with 100 μL mediums were added to the cells and incubated for 1.5 h, the absorption was detected at 450 nm to assess cell viability. Agilent Seahorse assays were used to evaluate the effects of metabolic markers on mitochondrial functions. The OCR of cells was determined after being treated by both metabolic markers (200 μM) and PM2.5 samples (200 μg/mL) (n=3).
as §1

The next assay deals with GFAT. In words: qPCR gene expression, GFAT. Particulars: after exposure to PM2.5. As for the experimental part:
(§3) Total RNA was extracted from BEAS-2B cells with RNAiso plus kit (TaKaRa, Shiga, Japan) according to the manufacturer's instructions. Reverse transcription of cDNA synthesis and real-time quantitative polymerase chain reaction (qPCR) were performed as described previously. All primers synthesized at BGI Co., Ltd. (Hong Kong, China) were described in Table 2.
On the technique in general: Quantitative PCR measures a nucleic acid by following its amplification.

A further assay has as its system OGT. In words: qPCR gene expression, OGT. Particulars: after PM2.5 exposure. The protocol: as §3
For assay [3], the system named is BEAS-2B cells. Kind of assay: Cell viability (CCK-8) of BEAS-2B cells given metabolic markers, then PM2.5. Conditions: metabolite 25-200 μM for 24 h, then 200 μg/mL PM2.5 for 24 h. As for the experimental part: as §2
A further assay deals with Phospho1. Kind of assay: qPCR gene expression, Phospho1. As for the experimental part: as §3
The next assay relates to PGC-1α. In words: qPCR gene expression, PGC-1α. Conditions: repressed by PM2.5 exposure. The protocol: as §3

Turning to `N#C/C(=C\c1cn(-c2ccccc2)c2ccccc12)C(=O)O` [UK5099, reference compound], in the assay with BEAS-2B cells [1], the “maximal respiration of cells with oxidation inhibitor” value was “remarkably reduced”.
For the compound “uridine diphosphate N-acetylglucosamine [UDP-GlcNAc]”, in the assay on BEAS-2B cells [2], the ATP production result is “significantly increase”, the basal respiration entry is “significantly increase” and the maximal respiration result was “significantly increase”. The “increase of cells' glucose oxidation” value in the assay on BEAS-2B cells [1] (cultures with and without PM2.5) came to 1.6 fold. Further, the GFAT expression result in the assay on GFAT is recorded as “interacted with the decline of GFAT”. In the assay on OGT, the OGT expression entry was “partially rescued”.
For `CN(CC(=O)O)C(=N)N` [creatine], in the assay with BEAS-2B cells [3], the “cell viability reduced by PM2.5 exposure” value was “improve the cell viability”.
In the case of `C[N+](C)(C)CCOP(=O)([O-])O` [Pc, phosphocholine], in the assay on BEAS-2B cells [3], the “cell viability reduced by PM2.5 exposure” value is “improve the cell viability”. Moreover, in the assay on BEAS-2B cells [2], the ATP production entry is given as “significantly increase”, the basal respiration result is “significantly increase” and the maximal respiration entry is on record as “significantly increase”. In addition, the “effect against adverse impacts of the TY1 panel on mitochondrial functions” value with BEAS-2B cells [2] (cells exposed to TY1) was “protective effects”. In addition, the “maximal respiration, fatty acid oxidation test” value in the assay on BEAS-2B cells [1] (only in the PM2.5-exposed lung cells) is on record as “significantly increased”. Besides, the Phospho1 expression result in the assay with Phospho1 (after PM2.5 exposure) is recorded as “greatly downregulated”. For the same compound, the Phospho1 expression result with Phospho1 (normal cells) is “no effects”. For the same compound, the PGC-1α expression result in the assay on PGC-1α is on record as “rescued”.
Take `CCOC(=O)[C@@]1(CCCCCCOc2ccc(Cl)cc2)CO1` [etomoxir, reference compound]: in the assay on BEAS-2B cells [1], the “maximal respiration of cells with oxidation inhibitor” value is reported as “did not change”.
For `CC(=O)N[C@@H](CC(=O)O)C(=O)O` [NAA, N-acetyl-aspartic acid], in the assay on BEAS-2B cells [2], the ATP production entry is on record as “significantly increase”, the basal respiration entry is listed as “significantly increase” and the maximal respiration result is “significantly increase”.
`NCCS(=O)(=O)O` [taurine]: in the assay on BEAS-2B cells [3], the “cell viability reduced by PM2.5 exposure” value is “improve the cell viability”.
